Test results published in article PMC4710668, “Bioactivation of food genotoxicants 5-hydroxymethylfurfural and furfuryl alcohol by sulfotransferases from human, mouse and rat: a comparative study” (Archives of Toxicology, 2014).

Legend:
[1] = test system: S. typhimurium TA100 strains expressing different SULT forms; conditions: ref Glatt et al. [2012]; cited from earlier work
[2] = biological target: T1, mSult1c2 (Mus musculus, UniProt Q9D939); test: FFA sulfoconjugation assay (N6-MF-A formation with adenosine as scavenger); type: biochemical
T1 construct: made in house; host or cells: Salmonella typhimurium TA1538 (cytosolic fraction, enzyme not purified)
Protocol: (§1) Cytosolic fractions containing individual SULT forms were prepared from transgenic S. typhimurium TA1538. Table S1 in the Supplementary Material provides a summary of the thirty SULTs used in the current study together with references describing the cloning of the respective S. typhimurium TA1538 strains. The expressed SULT forms are denoted with the prefixes h, m and r for human, mouse and rat enzymes, respectively. Bacteria were grown in Luria Broth medium containing ampicillin (100 µg/ml) by stirring for 8 h at 200 revolutions/min at 37 °C. The bacterial suspensions were centrifuged at 5,000 g for 10 min. The sediments were washed twice with 25 ml of 10 mM potassium phosphate buffer (pH 7.4)/50 mM potassium chloride (KCP buffer) and centrifuged again. The pellets were taken up in 800 µl KCP buffer and sonicated thrice for 15 s with 30 s pauses in between. The soluble fraction was attained by centrifuging for 1 h at 100,000 g. The supernatants (in the following termed cytosolic preparations) were frozen at −80 °C. The protein concentrations were determined according to a bicinchoninic acid (BCA) assay protocol. The SULT concentrations in the cytosolic preparations were estimated after electrophoretic separation and immunodetection using inclusion bodies of different SULT forms as standards (Teubner et al. [2007]). The preparation of SULT inclusion bodies and the immunodetection of SULTs is described in the Supplementary Material, which also contains a representative immunoblot of different amounts of rSult1a1standard and a cytosolic preparation of S. typhimurium expressing rSult1a1 (Fig. S1).
(§2) The reaction mixtures were prepared as described for HMF. In addition, they contained 10 mM adenosine as a nucleophilic scavenger. Following incubation for 20 min at 37 °C, sulfoconjugation reactions were stopped by adding 100 µl cold methanol containing 175 fmol of [^15N5]N ^6-MF-A as the internal standard, mixed and centrifuged at 15,000 g for 10 min. The clear supernatants were subjected to UPLC-MS/MS analyses. Incubations were performed as quadruplicates. At higher concentrations, FFA reacts spontaneously with adenosine at low, but detectable, levels. To correct for the SULT-independent adduct formation, mixtures with SULT-deficient cytosols were carried along simultaneously in duplicate. Controls were subtracted from the experimental samples.
(§3) The ribonucleoside adduct N ^6-((furan-2-yl)methyl)-adenosine (N ^6-MF-A) was analyzed by isotope-dilution UPLC-MS/MS with the same system described above using a HSS T3 column (1.8 µm, 2.1 × 100 mm, Waters). Samples of 8 µl were eluted with 10 mM ammonium bicarbonate buffer, pH 8.0 (A) and methanol (B) using an 6-min gradient from 98 % solvent A to 15 % solvent A at 0.35 ml/min flow rate (Yin et al. [2013]). The electrospray interface of the mass spectrometer operated in the positive ion mode. The fragmentations of N ^6-MF-A into the aglycone cation [N ^6-((furan-2-yl)methyl)-adenine-H]^+ (m/z = 348.1 → 216.1), the cleavage of the 2-methylfuranyl cation (m/z = 348.1 → 81.0) and the release of [N ^6-methyl-adenine-H]^+ (m/z = 348.1 → 148.0) were monitored together with the corresponding fragmentations of the isotope-labeled internal standard [^15N5]N ^6-MF-A for the formation of the aglycone (m/z = 353.1 → 221.1), the 2-methylfuran cation (m/z = 353.1 → 81.0) and ^15N5-labeled N ^6-methyl-adenine (m/z = 353.1 → 153.0). The N ^6-MF-A content of the incubation mixture was calculated from the ratio of peak areas resulting from the total ion current of all three MRM signals of the analyte. For the fragmentation of N ^6-MF-A ([^15N5]N ^6-MF-A), collision energies were 20, 25 and 35 eV for the transitions m/z = 348.1 → 216.1 (m/z = 353.1 → 221.1), m/z = 348.1 → 148.0 (m/z = 353.1 → 153.0) and m/z = 348.1 → 81.0 (m/z = 353.1 → 81.0), respectively. […]

[3] = biological target: T2, mSult1d1 (Mus musculus, UniProt Q3UZZ6); test: as above; type: biochemical
T2 construct: made in house; host or cells: Salmonella typhimurium TA1538 (cytosolic fraction, enzyme not purified)
Protocol: as §1, §2, §3

[4] = biological target: T3, rSult1c1 (Rattus norvegicus, UniProt P50237); test: as above; type: biochemical
T3 construct: made in house; host or cells: Salmonella typhimurium TA1538 (cytosolic fraction, enzyme not purified)
Protocol: as §1, §2, §3

[5] = biological target: T4, mSult1b1 (Mus musculus, UniProt Q9QWG7); test: as above; type: biochemical
T4 construct: made in house; host or cells: Salmonella typhimurium TA1538 (cytosolic fraction, enzyme not purified)
Protocol: as §1, §2, §3

[6] = biological target: T5, hSULT2B1a (Homo sapiens, UniProt O00204); test: as above; type: biochemical
T5 construct: made in house; host or cells: Salmonella typhimurium TA1538 (cytosolic fraction, not purified)
T5 sequence (O00204 1-350 isoform O00204-2): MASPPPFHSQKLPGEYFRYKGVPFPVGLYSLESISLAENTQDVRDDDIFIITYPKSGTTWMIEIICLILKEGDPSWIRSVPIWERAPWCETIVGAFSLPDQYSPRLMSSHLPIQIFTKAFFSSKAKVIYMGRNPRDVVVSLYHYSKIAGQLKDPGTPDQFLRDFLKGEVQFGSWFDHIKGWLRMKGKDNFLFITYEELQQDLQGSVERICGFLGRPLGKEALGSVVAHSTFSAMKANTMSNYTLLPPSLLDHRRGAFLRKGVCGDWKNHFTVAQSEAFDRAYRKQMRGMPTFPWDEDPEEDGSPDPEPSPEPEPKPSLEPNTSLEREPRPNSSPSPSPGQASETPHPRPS
Protocol: as §1, §2, §3

[7] = biological target: T6, hSULT1E1 (Homo sapiens, UniProt P49888); test: as above; type: biochemical
T6 construct: made in house; host or cells: Salmonella typhimurium TA1538 (cytosolic fraction, not purified)
T6 sequence (P49888 1-294): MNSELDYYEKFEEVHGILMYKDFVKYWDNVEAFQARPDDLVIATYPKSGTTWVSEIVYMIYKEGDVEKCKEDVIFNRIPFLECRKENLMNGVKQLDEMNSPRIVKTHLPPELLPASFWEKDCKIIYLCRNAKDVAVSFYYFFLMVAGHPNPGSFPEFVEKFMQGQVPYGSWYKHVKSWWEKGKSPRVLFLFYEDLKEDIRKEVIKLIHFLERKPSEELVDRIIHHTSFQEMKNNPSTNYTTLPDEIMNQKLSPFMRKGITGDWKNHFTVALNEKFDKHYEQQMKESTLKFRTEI
Protocol: as §1, §2, §3

T2 sequence (Q3UZZ6 whole entry): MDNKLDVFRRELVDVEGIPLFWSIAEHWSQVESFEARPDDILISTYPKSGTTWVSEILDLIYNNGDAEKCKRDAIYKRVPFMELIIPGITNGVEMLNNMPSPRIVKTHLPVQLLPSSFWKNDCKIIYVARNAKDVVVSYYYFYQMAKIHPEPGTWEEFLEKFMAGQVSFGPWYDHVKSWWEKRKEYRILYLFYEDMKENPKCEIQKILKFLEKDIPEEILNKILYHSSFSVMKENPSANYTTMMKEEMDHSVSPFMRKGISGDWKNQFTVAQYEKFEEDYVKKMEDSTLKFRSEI
T1 sequence (Q9D939 whole entry): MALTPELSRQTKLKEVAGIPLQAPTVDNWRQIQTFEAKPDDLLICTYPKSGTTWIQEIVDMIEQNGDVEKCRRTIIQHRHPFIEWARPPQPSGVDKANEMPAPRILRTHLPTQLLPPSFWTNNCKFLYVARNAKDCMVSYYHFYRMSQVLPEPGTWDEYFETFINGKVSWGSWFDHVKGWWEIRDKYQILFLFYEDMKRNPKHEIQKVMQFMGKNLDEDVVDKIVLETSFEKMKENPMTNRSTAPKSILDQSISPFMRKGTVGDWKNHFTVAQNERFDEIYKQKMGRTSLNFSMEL
T3 sequence (P50237 whole entry): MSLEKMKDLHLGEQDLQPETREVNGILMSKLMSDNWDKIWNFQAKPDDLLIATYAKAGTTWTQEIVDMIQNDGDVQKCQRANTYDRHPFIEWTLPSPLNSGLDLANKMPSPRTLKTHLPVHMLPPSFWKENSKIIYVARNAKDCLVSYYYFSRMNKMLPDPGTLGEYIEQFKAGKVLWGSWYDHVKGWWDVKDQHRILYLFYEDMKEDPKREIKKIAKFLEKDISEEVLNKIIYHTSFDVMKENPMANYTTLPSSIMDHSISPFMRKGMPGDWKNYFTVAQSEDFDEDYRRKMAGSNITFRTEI
T4 sequence (Q9QWG7 whole entry): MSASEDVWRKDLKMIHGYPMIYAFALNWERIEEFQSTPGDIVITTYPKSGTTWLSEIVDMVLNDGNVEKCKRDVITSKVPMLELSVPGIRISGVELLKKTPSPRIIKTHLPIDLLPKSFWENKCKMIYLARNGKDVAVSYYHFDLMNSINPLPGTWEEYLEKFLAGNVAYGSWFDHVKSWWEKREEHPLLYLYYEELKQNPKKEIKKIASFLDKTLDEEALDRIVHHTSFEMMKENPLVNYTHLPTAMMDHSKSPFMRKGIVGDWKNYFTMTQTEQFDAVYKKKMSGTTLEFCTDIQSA

Compound | mutagenicity in SULT-expressing strains [1] | Rate of N6-MF-A formation ([2]; 0.1 mM FFA) [fmol N ^6-MF-A/mg/min] | Rate of N6-MF-A formation ([2]; 1 mM FFA) [fmol N ^6-MF-A/mg/min] | Rate of N6-MF-A formation ([2]; 10 mM FFA) [fmol N ^6-MF-A/mg/min] | Rate of N6-MF-A formation ([3]; 0.1 mM FFA) [fmol N ^6-MF-A/mg/min] | Rate of N6-MF-A formation ([3]; 1 mM FFA) [fmol N ^6-MF-A/mg/min] | Rate of N6-MF-A formation (corr.) ([3]; 1 mM FFA, corrected by actual SULT concentration in the cytosolic preparation) | Rate of N6-MF-A formation ([3]; 10 mM FFA) | Rate of N6-MF-A formation ([4]; 0.1 mM FFA) [fmol N ^6-MF-A/mg/min] | Rate of N6-MF-A formation ([4]; 1 mM FFA) [fmol N ^6-MF-A/mg/min] | Rate of N6-MF-A formation ([4]; 10 mM FFA) [fmol N ^6-MF-A/mg/min] | Rate of N6-MF-A formation ([5]; 0.1 mM FFA) [fmol N ^6-MF-A/mg/min] | Rate of N6-MF-A formation ([5]; 10 mM FFA) [fmol N ^6-MF-A/mg/min] | Rate of N6-MF-A formation ([6]; 0.1 mM FFA) [fmol N ^6-MF-A/mg/min] | Rate of N6-MF-A formation ([6]; 1 mM FFA) [fmol N ^6-MF-A/mg/min] | Rate of N6-MF-A formation ([6]; 10 mM FFA) [fmol N ^6-MF-A/mg/min] | Rate of N6-MF-A formation ([7]; 0.1 mM FFA) [fmol N ^6-MF-A/mg/min] | Rate of N6-MF-A formation ([7]; 1 mM FFA) [fmol N ^6-MF-A/mg/min] | Rate of N6-MF-A formation ([7]; 10 mM FFA) [fmol N ^6-MF-A/mg/min]
OCc1ccco1 [FFA, furfuryl alcohol] | highest mutagenicity of FFA was observed in bacteria expressing hSULT1A1, 1C2 and mSult1a1 | <18 | <20 | <44 | 52.5 ± 1.7 | 468 ± 6 | 4,260 ± 60 fmol N ^6-MF-A/mg/min | 2,610 ± 30 fmol N ^6-MF-A/mg/min | <18 | 97.8 ± 2.3 | 492 ± 13 | <18 | 74.3 ± 1.6 | <18 | <20 | <44 | <18 | <20 | 47.0 ± 0.9
O=Cc1ccc(CO)o1 [HMF, 5-Hydroxymethylfurfural] | small, were detectable in those strains that expressed hSULT1A1, 1A3 and 1C2 as well as mSult1a1 and 1d1 | – | – | – | – | – | – | – | – | – | – | – | – | – | – | – | – | – | –
